{"source": "ChEMBL document CHEMBL4613209", "about": "“Quinolone hybrids and their anti-cancer activities: An overview” (Eur J Med Chem, 2019)", "data": [{"tested_on": "HL-60", "test": "Antiproliferative activity against human HL60 cells after 24 to 72 hrs by MTT assay", "format": "functional, cell-based", "units": {"IC50": "µM"}, "values": [{"smiles": "CCn1cc(C(=O)N/N=C/c2ccc(O)c(OC)c2)c(=O)c2cc(F)c(N3CCNCC3)cc21", "IC50": "1.4 to 52.3"}, {"smiles": "COc1ccc(/C=N/Nc2nnc(-c3cn4c5c(c(N6CCN(C)CC6)c(F)cc5c3=O)OCC4C)[nH]2)cc1", "note": "(stereo not given)", "IC50": "1.4 to 52.3"}, {"smiles": "CC1COc2c(N3CCN(C)CC3)c(F)cc3c(=O)c(-c4nnc(N/N=C/c5ccc(C(=O)O)cc5)[nH]4)cn1c23", "note": "(stereo not given)", "IC50": 4.2}, {"smiles": "CCn1cc(C(=O)N/N=C/c2ccccc2OC)c(=O)c2cc(F)c(N3CCNCC3)cc21", "IC50": "1.4 to 52.3"}, {"smiles": "CC1COc2c(N3CCN(C)CC3)c(F)cc3c(=O)c(-c4nnc(SCC(=O)N/N=C/c5ccccc5)[nH]4)cn1c23", "note": "(stereo not given)", "IC50": "1.4 to 52.3"}, {"smiles": "CC1COc2c(N3CCN(C)CC3)c(F)cc3c(=O)c(-c4nnc(SCC(=O)N/N=C/c5ccc(Cl)cc5)[nH]4)cn1c23", "note": "(stereo not given)", "IC50": "1.4 to 52.3"}, {"smiles": "CC1COc2c(N3CCN(C)CC3)c(F)cc3c(=O)c(-c4nnc(SCC(=O)N/N=C/c5ccc([N+](=O)[O-])c6c5OCO6)[nH]4)cn1c23", "note": "(stereo not given)", "IC50": "1.4 to 52.3"}, {"smiles": "CC1COc2c(N3CCN(C)CC3)c(F)cc3c(=O)c(-c4nnc(SCC(=O)N/N=C/c5ccc(F)cc5)[nH]4)cn1c23", "note": "(stereo not given)", "IC50": "1.4 to 52.3"}, {"smiles": "CCn1cc(C(=O)N/N=C/c2ccccc2O)c(=O)c2cc(F)c(N3CCNCC3)cc21", "IC50": "1.4 to 52.3"}, {"smiles": "CC1COc2c(N3CCN(C)CC3)c(F)cc3c(=O)c(-c4nnc(SCC(=O)N/N=C/c5ccc(C(=O)O)cc5)[nH]4)cn1c23", "note": "(stereo not given)", "IC50": "1.4 to 52.3"}]}, {"tested_on": "L1210", "test": "Antiproliferative activity against mouse L1210 cells after 24 to 72 hrs by MTT assay", "format": "functional, cell-based", "units": {"IC50": "µM"}, "values": [{"smiles": "CCn1cc(C(=O)N/N=C/c2ccc(O)c(OC)c2)c(=O)c2cc(F)c(N3CCNCC3)cc21", "IC50": "1.4 to 52.3"}, {"smiles": "COc1ccc(/C=N/Nc2nnc(-c3cn4c5c(c(N6CCN(C)CC6)c(F)cc5c3=O)OCC4C)[nH]2)cc1", "note": "(stereo not given)", "IC50": "1.4 to 52.3"}, {"smiles": "CC1COc2c(N3CCN(C)CC3)c(F)cc3c(=O)c(-c4nnc(N/N=C/c5ccc(C(=O)O)cc5)[nH]4)cn1c23", "note": "(stereo not given)", "IC50": 1.6}, {"smiles": "CCn1cc(C(=O)N/N=C/c2ccccc2OC)c(=O)c2cc(F)c(N3CCNCC3)cc21", "IC50": "1.4 to 52.3"}, {"smiles": "CC1COc2c(N3CCN(C)CC3)c(F)cc3c(=O)c(-c4nnc(SCC(=O)N/N=C/c5ccccc5)[nH]4)cn1c23", "note": "(stereo not given)", "IC50": "1.4 to 52.3"}, {"smiles": "CC1COc2c(N3CCN(C)CC3)c(F)cc3c(=O)c(-c4nnc(SCC(=O)N/N=C/c5ccc(Cl)cc5)[nH]4)cn1c23", "note": "(stereo not given)", "IC50": "1.4 to 52.3"}, {"smiles": "CC1COc2c(N3CCN(C)CC3)c(F)cc3c(=O)c(-c4nnc(SCC(=O)N/N=C/c5ccc([N+](=O)[O-])c6c5OCO6)[nH]4)cn1c23", "note": "(stereo not given)", "IC50": "1.4 to 52.3"}, {"smiles": "CC1COc2c(N3CCN(C)CC3)c(F)cc3c(=O)c(-c4nnc(SCC(=O)N/N=C/c5ccc(F)cc5)[nH]4)cn1c23", "note": "(stereo not given)", "IC50": "1.4 to 52.3"}, {"smiles": "CCn1cc(C(=O)N/N=C/c2ccccc2O)c(=O)c2cc(F)c(N3CCNCC3)cc21", "IC50": "1.4 to 52.3"}, {"smiles": "CC1COc2c(N3CCN(C)CC3)c(F)cc3c(=O)c(-c4nnc(SCC(=O)N/N=C/c5ccc(C(=O)O)cc5)[nH]4)cn1c23", "note": "(stereo not given)", "IC50": "1.4 to 52.3"}]}, {"tested_on": "Hep 3B2", "test": "Antiproliferative activity against human Hep3B cells after 24 to 72 hrs by MTT assay", "format": "functional, cell-based", "units": {"IC50": "µM"}, "values": [{"smiles": "CCn1cc(C(=O)N/N=C/c2ccc(O)c(OC)c2)c(=O)c2cc(F)c(N3CCNCC3)cc21", "IC50": "1.4 to 52.3"}, {"smiles": "COc1ccc(/C=N/Nc2nnc(-c3cn4c5c(c(N6CCN(C)CC6)c(F)cc5c3=O)OCC4C)[nH]2)cc1", "note": "(stereo not given)", "IC50": "1.4 to 52.3"}, {"smiles": "CC1COc2c(N3CCN(C)CC3)c(F)cc3c(=O)c(-c4nnc(N/N=C/c5ccc(C(=O)O)cc5)[nH]4)cn1c23", "note": "(stereo not given)", "IC50": "1.4 to 52.3"}, {"smiles": "CCn1cc(C(=O)N/N=C/c2ccccc2OC)c(=O)c2cc(F)c(N3CCNCC3)cc21", "IC50": "1.4 to 52.3"}, {"smiles": "CC1COc2c(N3CCN(C)CC3)c(F)cc3c(=O)c(-c4nnc(SCC(=O)N/N=C/c5ccccc5)[nH]4)cn1c23", "note": "(stereo not given)", "IC50": "1.4 to 52.3"}, {"smiles": "CC1COc2c(N3CCN(C)CC3)c(F)cc3c(=O)c(-c4nnc(SCC(=O)N/N=C/c5ccc(Cl)cc5)[nH]4)cn1c23", "note": "(stereo not given)", "IC50": "1.4 to 52.3"}, {"smiles": "CC1COc2c(N3CCN(C)CC3)c(F)cc3c(=O)c(-c4nnc(SCC(=O)N/N=C/c5ccc([N+](=O)[O-])c6c5OCO6)[nH]4)cn1c23", "note": "(stereo not given)", "IC50": "1.4 to 52.3"}, {"smiles": "CC1COc2c(N3CCN(C)CC3)c(F)cc3c(=O)c(-c4nnc(SCC(=O)N/N=C/c5ccc(F)cc5)[nH]4)cn1c23", "note": "(stereo not given)", "IC50": "1.4 to 52.3"}, {"smiles": "CCn1cc(C(=O)N/N=C/c2ccccc2O)c(=O)c2cc(F)c(N3CCNCC3)cc21", "IC50": "1.4 to 52.3"}, {"smiles": "CC1COc2c(N3CCN(C)CC3)c(F)cc3c(=O)c(-c4nnc(SCC(=O)N/N=C/c5ccc(C(=O)O)cc5)[nH]4)cn1c23", "note": "(stereo not given)", "IC50": "1.4 to 52.3"}]}, {"tested_on": "SMMC-7721", "test": "Antiproliferative activity against human SMMC7721 cells after 24 to 72 hrs by MTT assay", "format": "functional, cell-based", "units": {"IC50": "µM"}, "values": [{"smiles": "CCn1cc(C(=O)N/N=C/c2ccc(O)c(OC)c2)c(=O)c2cc(F)c(N3CCNCC3)cc21", "IC50": "1.4 to 52.3"}, {"smiles": "COc1ccc(/C=N/Nc2nnc(-c3cn4c5c(c(N6CCN(C)CC6)c(F)cc5c3=O)OCC4C)[nH]2)cc1", "note": "(stereo not given)", "IC50": "1.4 to 52.3"}, {"smiles": "CC1COc2c(N3CCN(C)CC3)c(F)cc3c(=O)c(-c4nnc(N/N=C/c5ccc(C(=O)O)cc5)[nH]4)cn1c23", "note": "(stereo not given)", "IC50": 1.4}, {"smiles": "CCn1cc(C(=O)N/N=C/c2ccccc2OC)c(=O)c2cc(F)c(N3CCNCC3)cc21", "IC50": "1.4 to 52.3"}, {"smiles": "CC1COc2c(N3CCN(C)CC3)c(F)cc3c(=O)c(-c4nnc(SCC(=O)N/N=C/c5ccccc5)[nH]4)cn1c23", "note": "(stereo not given)", "IC50": "1.4 to 52.3"}, {"smiles": "CC1COc2c(N3CCN(C)CC3)c(F)cc3c(=O)c(-c4nnc(SCC(=O)N/N=C/c5ccc(Cl)cc5)[nH]4)cn1c23", "note": "(stereo not given)", "IC50": "1.4 to 52.3"}, {"smiles": "CC1COc2c(N3CCN(C)CC3)c(F)cc3c(=O)c(-c4nnc(SCC(=O)N/N=C/c5ccc([N+](=O)[O-])c6c5OCO6)[nH]4)cn1c23", "note": "(stereo not given)", "IC50": "1.4 to 52.3"}, {"smiles": "CC1COc2c(N3CCN(C)CC3)c(F)cc3c(=O)c(-c4nnc(SCC(=O)N/N=C/c5ccc(F)cc5)[nH]4)cn1c23", "note": "(stereo not given)", "IC50": "1.4 to 52.3"}, {"smiles": "CCn1cc(C(=O)N/N=C/c2ccccc2O)c(=O)c2cc(F)c(N3CCNCC3)cc21", "IC50": "1.4 to 52.3"}, {"smiles": "CC1COc2c(N3CCN(C)CC3)c(F)cc3c(=O)c(-c4nnc(SCC(=O)N/N=C/c5ccc(C(=O)O)cc5)[nH]4)cn1c23", "note": "(stereo not given)", "IC50": "1.4 to 52.3"}]}]}
